Source: US5496805A, “Inhibitors of neutral endopeptidase” (priority 1990, dated 1996)
Structures can show the parent of a compound that is named as a salt.

Biological target: T1, neutral endopeptidase (Rattus norvegicus, UniProt P07861)
T1 sequence (P07861 1-750): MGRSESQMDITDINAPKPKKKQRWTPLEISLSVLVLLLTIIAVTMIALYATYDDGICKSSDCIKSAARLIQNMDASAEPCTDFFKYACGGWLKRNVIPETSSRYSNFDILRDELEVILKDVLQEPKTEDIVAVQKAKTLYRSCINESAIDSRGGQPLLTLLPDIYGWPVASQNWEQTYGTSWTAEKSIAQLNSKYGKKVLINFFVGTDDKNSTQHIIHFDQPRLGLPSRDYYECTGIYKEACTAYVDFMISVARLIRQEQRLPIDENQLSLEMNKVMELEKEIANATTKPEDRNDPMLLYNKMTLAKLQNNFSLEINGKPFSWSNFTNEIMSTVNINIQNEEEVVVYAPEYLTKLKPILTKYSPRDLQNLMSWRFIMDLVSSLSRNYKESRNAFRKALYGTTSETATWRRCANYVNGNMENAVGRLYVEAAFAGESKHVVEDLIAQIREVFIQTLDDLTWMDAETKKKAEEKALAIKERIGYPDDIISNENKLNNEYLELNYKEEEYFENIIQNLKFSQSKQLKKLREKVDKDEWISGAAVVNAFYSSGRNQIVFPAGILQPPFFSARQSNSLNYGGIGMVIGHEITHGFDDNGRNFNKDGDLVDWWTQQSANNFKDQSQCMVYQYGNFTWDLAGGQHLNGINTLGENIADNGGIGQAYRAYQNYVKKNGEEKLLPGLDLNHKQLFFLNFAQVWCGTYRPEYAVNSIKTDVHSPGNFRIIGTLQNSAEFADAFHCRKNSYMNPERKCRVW
Assay: biochemical
Settings: enzyme purified from rat kidney; Dns-Gly-Phe-Arg 0.5 mM; pH 7.5; 37°, 30 minutes; inhibitor preincubated 10 minutes
Protocol: The in vitro neutral endopeptidase activity is determined using a fluorometric assay procedure. The assay is based upon the cleavage of the fluorescent dansylated tripeptide Dns-Gly-Phe-Arg to form Dns-Gly. The latter is extracted from the acidified mixture by ethyl acetate and is strongly fluorescent.
The incubation mixture employed for the assay contains the substance Dns-Gly-Phe-Arg (0.5 mM), tris(hydroxymethyl)aminomethane -HCl buffer (pH 7.5, 50 mM), an enzyme preparation in 0.05% Triton X-100, and water or inhibitor diluted to a final volume of 0.25 ml. The enzyme preparation is purified from rat kidney according to the procedure described by Almenoff et al. in Biochemistry Vol. 22, p. 590-599 (1983). The inhibitor is preincubated for 10 minutes with the enzyme preparation and buffer before the reaction is initiated by the addition of the substrate. Incubation is carried out at 37° for 30 minutes and the reaction is stopped by the addition of 0.25 ml. 1N HCl and extraction of the Dns-Gly product into 1.5 ml. of ethyl acetate. Relative fluorescent intensity (RFI) of the ethyl acetate extract is measured using a Ferrand Spectofluorometer at excitation and emission wavelengths of 342 and 508 nm., respectively, corrected for the RFI of a zero-time control, and compared with assays lacking inhibitor.
Runs are made at different concentrations of test compound and by use of a mathematical model the IC50 is determined. The IC50 is the concentration of test compound that inhibits activity of the enzyme by 50%.

Compared with `CC(CS)C(=O)N[C@@H](CCCNC(=N)N)C(=O)O` (mixture of isomers) [Example 3, N-(DL-3-Mercapto-2-methyl-1-oxopropyl)-L-arginine], `CC(C)CC(CS)C(=O)N[C@@H](CCCNC(=N)N)C(=O)O` (mixture of isomers) [Example 11, (±)-N^2-[2-(Mercaptomethyl)-4-methyl-1-oxopentyl]-L-arginine] is 4.2-fold lower in IC50: 720 nM for the first, 170 nM for the second. The second is the more potent here.

First: N=C(N)NCCC[C@H](NC(=O)C(CS)Cc1ccccc1)C(=O)O (mixture of isomers) [Example 4, N-[DL-2-(Mercaptomethyl)-1-oxo-3,-phenylpropyl]-L-arginine]
Second: CSCC[C@H](NC(=O)C(CS)Cc1ccccc1)C(=O)O (mixture of isomers) [Example 22, (±)-N-[2-(Mercaptomethyl)-1-oxo-3-phenylpropyl]-L -methionine]
The IC50 of the first is 43-fold higher: 290 nM for the first, 6.7 nM for the second. The second is the more potent here.

`CC(CS)C(=O)N[C@@H](Cc1c[nH]c2ccccc12)C(=O)O` (mixture of isomers) [Example 5, N-(DL-3-Mercapto-2-methyl-1-oxopropyl)-L-tryptophan] and `CC(CS)C(=O)N[C@@H](Cc1ccccc1)C(=O)O` (mixture of isomers) [Example 17, (±)-N-(3-Mercapto-2-methyl-1-oxopropyl)-L-phenylalanine, 1,1-dimethylethanamine salt (1:1)] are within 1.5-fold of each other in IC50: 20 nM for the first, 14 nM for the second.

Going from `CC(CS)C(=O)N[C@@H](Cc1ccc(O)cc1)C(=O)O` (mixture of isomers) [Example 6, N-(DL-3-Mercapto-2,methyl1-oxopropyl)-L-tyrosine] to `CC(CS)C(=O)N[C@@H](Cc1ccc(O)c(O)c1)C(=O)O` (mixture of isomers) [Example 7, 3-Hydroxy-N-(DL-3-mercapto-2-methyl-1-oxopropyl)-L-tyrosine], the IC50 rises from 13 nM to 54 nM (4.2-fold). The first is the more potent here.

Going from `CC(C)C[C@H](NC(=O)C(C)CS)C(=O)O` (mixture of isomers) [Example 18, (±)-N-(3-Mercapto-2-methyl-1-oxopropyl)-L-leucine, 1,1-dimethylethanamine salt (1:1)] to `CC(C)CC(CS)C(=O)N[C@@H](CC(C)C)C(=O)O` (mixture of isomers) [Example 34, (±)-N-[2-(Mercaptomethyl)-4-methyl-1-oxopentyl]-L-leucine], the IC50 falls from 69 nM to 12 nM (5.8-fold). The second is the more potent here.

First: CC(CS)C(=O)N[C@@H](CCC(=O)O)C(=O)O (mixture of isomers) [Example 19, (±)-N-(3-Mercapto-2-methyl-1-oxopropyl)-L-glutamic acid, 1,1-dimethylethanamine salt (1:2)]
Second: CC(CS)C(=O)N[C@@H](CO)C(=O)O (mixture of isomers) [Example 21, (±)-N-(3-Mercapto-2-methyl-1-oxopropyl)-L-serine, N-cyclohexylcyclohexamine salt(1:1)]
The IC50 of the first is 2.5-fold lower: 110 nM for the first, 280 nM for the second.

First: CSCC[C@H](NC(=O)C(C)CS)C(=O)O (mixture of isomers) [Example 23, (±)-N-(3-Mercapto-2-methyl-1-oxopropyl)-L-methionine, 1,1-dimethylethanamine salt (1:1)]
Second: CC(CS)C(=O)N[C@@H](C)C(=O)O (mixture of isomers) [Example 25, (±)-N-(3-Mercapto-2-methyl-1-oxopropyl)-L-alanine, N-cyclohexylcyclohexanamine salt (1:1)]
The IC50 of the first is 2.4-fold lower: 49 nM for the first, 120 nM for the second. The first is the more potent here.

Compared with `O=C(N[C@@H](Cc1ccc(O)c(O)c1)C(=O)O)C(CS)Cc1ccccc1` (mixture of isomers) [Example 24, (±)-3-Hydroxy-N-[2-(mercaptomethyl)-1-oxo-3-phenylpropyl]-L-tyrosine, 1,1-dimethylethanamine salt (1:1)], `O=C(N[C@@H](Cc1ccc(O)cc1)C(=O)O)C(CS)Cc1ccccc1` (mixture of isomers) [Example 29, (±)-N-[2-(Mercaptomethyl)-1-oxo-3-phenylpropyl]-L -tyrosine] is 2.8-fold lower in IC50: 47 nM for the first, 17 nM for the second. The second is the more potent here.

Compared with `O=C(NCCCC[C@H](NC(=O)C(CS)Cc1ccccc1)C(=O)O)OCc1ccccc1` (mixture of isomers) [Example 26, (±)-N^2-[2-(Mercaptomethyl)-1-oxo-3-phenylpropyl]-N^6-[(phenylmethoxy)carbonyl]-L-lysine, N-cyclohexylcyclohexanamine salt (1:1)], `O=C(N[C@@H](Cc1c[nH]c2ccccc12)C(=O)O)C(CS)Cc1ccccc1` (mixture of isomers) [Example 28, (±)-N-[2-(Mercaptomethyl)-1-oxo-3-phenylpropyl]-L -tryptophan, 1,1-dimethylethanamine salt (1:1)] is 4.1-fold lower in IC50: 32 nM for the first, 7.8 nM for the second.

Compared with `CC(C)CC(CS)C(=O)NCC(=O)N[C@@H](CCCN=C(N)N)C(=O)O` (mixture of isomers) [Example 55, (±)-N-[N,[2-(Mercaptomethyl)-4-methyl-1-oxopentyl]-glycyl]-L-arginine], `CC(C)CC(CS)C(=O)NCC(=O)N[C@@H](CCC(N)=O)C(=O)O` (mixture of isomers) [Example 59, (±)-N^2-[N-[2-(Mercaptomethyl)-4-methyl-1-oxopentyl]-glycyl]-L-glutamine, ammonium salt (1:1)] is 1.6-fold lower in IC50: 530 nM for the first, 330 nM for the second.

`CC(C)C[C@H](NC(=O)[C@H](Cc1ccccc1)NC(=O)[C@@H]1CCCC[C@H]1CS)C(=O)O` (mixture of isomers) [Example 67, (trans)-N-[N-[[2-(Mercaptomethyl)cyclohexyl]carbonyl]-L-phenylalanyl]-L-leucine] and `CC(C)C[C@@H](NC(=O)[C@@H](Cc1ccccc1)NC(=O)[C@@H]1CCCC[C@H]1C(=O)O)C(=O)O` (mixture of isomers) [Example 81, (trans)(R,R)-N-[N-[(2-Carboxycyclohexyl)carbonyl]-L-phenylalanyl]-L-leucine] are within 1.5-fold of each other in IC50: 970 nM for the first, 1200 nM for the second.

Going from `CC(C)CC(CS)C(=O)NCC(=O)O` (racemic) [Example 8, (±)-N-[2-(Mercaptomethyl)-4-methyl-1-oxopentyl]-glycine] to `CC(C)CC(CS)C(=O)N[C@@H](C)C(=O)O` (single isomer, unassigned; isomer a) [Example 12, N-[2-(Mercaptomethyl)-4-methyl-1-oxopentyl]-L-alanine (isomer A)], the IC50 falls from 280 nM to 3.3 nM (85-fold). The second is the more potent here.

`CCCC(C)C(CS)C(=O)NCC(=O)O` (racemic) [Example 10, (±)-N-[2-(Mercaptomethyl)-3-methyl-1-oxohexyl]-glycine, N-cyclohexylcyclohexanamine salt (1:1)] and `CC(CS)C(=O)NCC(=O)O` (racemic) [Example 16, (±)-N-(3-Mercapto-2-methyl-1-oxopropyl)glycine] are within 1.5-fold of each other in IC50: 510 nM for the first, 370 nM for the second.

Going from `CC(CS)C(=O)N[C@H](C(=O)O)C(C)C` (mixture of isomers) [Example 20, (±)-N-(3-Mercapto-2-methyl-1-oxopropyl)-L-valine] to `CC(C)CC(CS)C(=O)N[C@@H](Cc1ccccc1)C(=O)O` (mixture of isomers) [Example 33, (±)-N-[2-(Mercaptomethyl)-4-methyl-1-oxopentyl]-L-phenylalanine], the IC50 falls from 21 nM to 9 nM (2.3-fold).

`O=C(O)CCNC(=O)C(CS)Cc1ccccc1` (racemic) [Example 45, (±)-3-[[2-(Mercaptomethyl)-1-oxo-3-phenylpropyl]amino]propanoic acid] and `O=C(O)CCCNC(=O)C(CS)Cc1ccccc1` (racemic) [Example 46, (±)-4-[[2-(Mercaptomethyl)-1-oxo-3-phenylpropyl]amino]butanoic acid] are within 1.5-fold of each other in IC50: 8.9 nM for the first, 6 nM for the second.

Compared with `O=C(O)CCCCNC(=O)C(CS)Cc1ccccc1` (racemic) [Example 49, (±)-5-[[2-(Mercaptomethyl)-1-oxo-3-phenylpropyl]amino]pentanoic acid], `O=C(O)CCCCCNC(=O)C(CS)Cc1ccccc1` (racemic) [Example 50, (±)-6-[[2-(Mercaptomethyl)-1-oxo-3-phenylpropyl]amino]hexanoic acid] is 2.7-fold higher in IC50: 22 nM for the first, 59 nM for the second. The first is the more potent here.

`O=C(O)CCCCCCCCCCNC(=O)C(CS)Cc1ccccc1` (racemic) [Example 53, (±)-11-[[2-(Mercaptomethyl)-1-oxo-3-phenylpropyl]amino]undecanoic acid] and `CC(C)CC(CS)C(=O)NCCC(=O)N[C@@H](CCCNC(=N)N)C(=O)O` (mixture of isomers) [Example 58, (±)-N-[N-[2-(Mercaptomethyl)-4-methyl-1-oxopentyl]-β-alanyl]-L-arginine] are within 1.5-fold of each other in IC50: 76 nM for the first, 95 nM for the second.
